Reference: US20060069132A1, “Azolecarboxamide herbicides” (priority 2004, published 2006)

Legend:
[1] = system: bermudagrass; experiment: Test C pre-/postemergence herbicide test; format: in vivo, Cynodon dactylon
Outline: (§1)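 Preemergence: seeds planted and treated with compound in non-phytotoxic solvent with surfactant; postemergence: plants at 2 to 18 cm (1- to 4-leaf stage) sprayed likewise. Kept in greenhouse 12 to 14 days, then visually rated against controls, 0 (no effect) to 100 (complete control).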

[2] = system: large crabgrass; experiment: Test C pre-/postemergence herbicide test; format: in vivo, Digitaria sanguinalis; conditions: preemergence
Outline: as §1

[3] = system: giant foxtail; experiment: Test C pre-/postemergence herbicide test; format: in vivo, Setaria faberi; conditions: preemergence
Outline: as §1

[4] = system: lambsquarters; experiment: Test C pre-/postemergence herbicide test; format: in vivo, Chenopodium album; conditions: preemergence
Outline: as §1

[5] = system: morningglory; experiment: Test C pre-/postemergence herbicide test; format: in vivo, Ipomoea coccinea; design: key to Plant response rating, Morningglory: 0 = no effect, 100 = complete control; conditions: preemergence
Outline: as §1

[6] = system: common ragweed; experiment: Test C pre-/postemergence herbicide test; format: in vivo, Ambrosia elatior; design: key to Plant response rating, Ragweed: 0 = no effect, 100 = complete control; conditions: preemergence
Outline: as §1

[7] = system: velvetleaf; experiment: Test C pre-/postemergence herbicide test; format: in vivo, Abutilon theophrasti; conditions: preemergence
Outline: as §1

[8] = system: rice; experiment: Test C flooded paddy test; format: in vivo, Oryza sativa; conditions: for Plant response rating, Rice: 500 g ai/ha, visual rating after 12 to 14 days
Outline: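 Plants were grown to the 1- to 4-leaf stage (2–18 cm) and then treated postemergence, or grown to the 2-leaf stage for the flooded paddy test. They were held in a greenhouse for 12 to 14 days and then scored by eye against controls, where 0 is no effect and 100 is complete control.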

[9] = system: smallflower umbrella sedge; experiment: Test C flooded paddy test; format: in vivo, Cyperus difformis; conditions: for Plant response rating, Sedge, Umbrella: 500 g ai/ha, visual rating after 12 to 14 days
[10] = 62 g ai/ha, preemergence, scale 0 to 100, 0 no effect, 100 complete control
[11] = 250 g ai/ha, scale 0-100, preemergence
[12] = 500 g ai/ha, scale 0 to 100 (0 no effect, 100 complete control), visual, 12 to 14 days
[13] = 125 g ai/ha, scale 0 to 100 (0 no effect, 100 complete control)
[14] = 250 g ai/ha, scale of 0 to 100, 0 is no effect, 100 is complete control
[15] = scale 0 to 100 (0 no effect, 100 complete control)
[16] = 125 g ai/ha, scale 0 (no effect) to 100 (complete control), visual, 12 to 14 days, preemergence
[17] = 125 g ai/ha, scale 0 (no effect) to 100 (complete control), visual, 12 to 14 days

| Compound | Plant response rating, Bermudagrass [1, 10] | Plant response rating, Bermudagrass [1, 11] | Plant response rating, Crabgrass, Large ([2]; 62 g ai/ha, scale 0 to 100) | Plant response rating, Crabgrass, Large ([2]; 250 g ai/ha, scale 0-100) | Plant response rating, Foxtail, Giant ([3]; 62 g ai/ha, scale 0 to 100) | Plant response rating, Foxtail, Giant ([3]; 250 g ai/ha, scale 0-100) | Plant response rating, Lambsquarters ([4]; 62 g ai/ha, scale 0 to 100) | Plant response rating, Lambsquarters ([4]; 250 g ai/ha, scale 0-100) | Plant response rating, Morningglory ([5]; 62 g ai/ha, scale 0 to 100) | Plant response rating, Morningglory ([5]; 250 g ai/ha, scale 0-100) | Plant response rating, Ragweed ([6]; 62 g ai/ha, scale 0 to 100) | Plant response rating, Velvetleaf ([7]; 62 g ai/ha, scale 0 to 100) | Rice plant response rating ([8]; 62 g ai/ha, scale 0 to 100) | Rice plant response rating [8, 13] | Rice plant response rating [8, 14] | Plant response rating, Rice [8, 15] | Sedge, Umbrella plant response rating ([9]; 62 g ai/ha, scale 0 to 100) | Sedge, Umbrella plant response rating [9, 13] | Sedge, Umbrella plant response rating [9, 14] | Plant response rating, Sedge, Umbrella [9, 15] | further results |
| --- | --- | --- | --- | --- | --- | --- | --- | --- | --- | --- | --- | --- | --- | --- | --- | --- | --- | --- | --- | --- | --- |
| CCC1=NN(C(C)(C)C)CC1C(=O)Nc1cc(C(=O)N(C)C)ccc1F (racemic) [Compound 343] | 60 | 90 | 50 | 80 | 40 | 70 | 100 | 100 | 5 | 100 | 70 | 60 | 20 | 50 | 70 | 80 | 20 | 40 | 80 | 90 | Plant response rating (0 = no effect, 100 = complete control), Bermudagrass ([1]; 125 g ai/ha, preemergence): 70; Plant response rating, Bermudagrass ([1]; 500 g ai/ha, scale 0 to 100 (0 no effect, 100 complete control), visual, 12 to 14 days, preemergence): 90; Plant response rating (0 = no effect, 100 = complete control), Crabgrass, Large ([2]; 125 g ai/ha): 80; Plant response rating, Crabgrass, Large [2, 12]: 100; Plant response rating (0 = no effect, 100 = complete control), Foxtail, Giant ([3]; 125 g ai/ha): 50; Plant response rating, Foxtail, Giant [3, 12]: 80; Plant response rating (0 = no effect, 100 = complete control), Lambsquarters ([4]; 125 g ai/ha): 100; Plant response rating, Lambsquarters [4, 12]: 100; Plant response rating (0 = no effect, 100 = complete control), Morningglory ([5]; 125 g ai/ha): 60; Plant response rating, Morningglory [5, 12]: 100; Plant response rating (0 = no effect, 100 = complete control), Ragweed ([6]; 125 g ai/ha): 90; Plant response rating, Ragweed ([6]; 250 g ai/ha, scale 0-100): 90; Plant response rating, Ragweed [6, 12]: 100; Plant response rating (0 = no effect, 100 = complete control), Velvetleaf ([7]; 125 g ai/ha): 80; Plant response rating, Velvetleaf ([7]; 250 g ai/ha, scale 0-100): 100; Plant response rating, Velvetleaf [7, 12]: 100 |
| CCn1nc(C(C)(C)C)cc1C(=O)Nc1cc(C(=S)N(C)C)ccn1 [Compound 334] | 100 | 100 | 85 | 100 | 60 | 100 | 100 | 100 | 5 | 40 | 75 | 5 | 70 | 75 | 80 | 85 | 80 | 90 | 90 | 95 | Plant response rating, Bermudagrass ([1]; 31 g ai/ha, scale 0 to 100, 0 no effect, 100 complete control, last section of Table C (species set of preemergence test)): 100; Plant response rating, Bermudagrass [1, 16]: 100; Plant response rating, Crabgrass, Large [2, 17]: 100; Plant response rating, Foxtail, Giant [3, 17]: 80; Plant response rating, Lambsquarters [4, 17]: 100; Plant response rating, Morningglory [5, 17]: 20; Plant response rating, Ragweed ([6]; 250 g ai/ha, scale 0-100): 100; Plant response rating, Velvetleaf ([7]; 250 g ai/ha, scale 0-100): 85 |
| CCNC(=O)c1cccc(NC(=O)c2cc(C3(C)CC3)nn2CC)c1 [Compound 306] | 40 | 90 | 100 | 100 | 5 | 90 | 100 | 100 | 5 | 10 | 0 | 5 | 30 | 40 | 55 | 70 | 85 | 90 | 90 | 90 | Plant response rating, Bermudagrass [1, 16]: 85; Bermudagrass plant response rating ([1]; Preemergence, 500 g ai/ha, scale 0 to 100, 0 no effect, 100 complete control): 100; Plant response rating, Crabgrass, Large [2, 17]: 100; Plant response rating, Crabgrass, Large [2, 12]: 100; Plant response rating, Foxtail, Giant [3, 17]: 40; Plant response rating, Foxtail, Giant [3, 12]: 100; Plant response rating, Lambsquarters [4, 17]: 100; Plant response rating, Lambsquarters [4, 12]: 100; Plant response rating, Morningglory [5, 17]: 5; Plant response rating, Morningglory [5, 12]: 20; Plant response rating, Ragweed [6, 12]: 100; Plant response rating, Velvetleaf [7, 12]: 10 |
